Experimental data reported in patent US9851354B2, “Methods of treating fragile X syndrome and related disorders” (Alcobra Ltd., priority 2013, dated 2017).
“Also recorded” adds a separate entry of the source.

Experiments:
Format in all cases: in vivo, mouse
[1] = system: Fmr1 knockout (KO) or Wild Type (WT) mice; assay: Contextual fear conditioning (freezing)
Protocol: (§1) Fmr1 knockout mice (KO2) mice (The Dutch-Belgium Fragile X Consortium, 1994), initially obtained from the Jackson Laboratory, and wild type (WT) littermates were generated on a C57BL/6J background and repeatedly backcrossed onto a C57BL/6J background for more than eight generations. The Fmr1 knockout mice were housed in groups of the same genotype in a temperature and humidity controlled room with a 12-h light-dark cycle (lights on from 7 am to 7 pm; testing was conducted during light phase). Room temperature and humidity were recorded continuously in the holding room while food and water were available ad libitum. Testing was conducted on healthy Fmr1 knockout mice and their wild type littermates (N=10 mice per treatment group) at 2 or 6 months of age during the behavioral experiments. Mice were housed in commercial plastic cages and experiments were conducted in line with the requirements of the UK Animals (Scientific Procedures) Act, 1986. All experiments were conducted with experimenters blind to genotype and drug treatment. Animals were allowed a minimum acclimatization period of one week prior to performing any experiment. No prophylactic or therapeutic treatment was administered during the acclimatization period.
(§2) In all cases, saline was used as a vehicle (control).
In the fear conditioning experiment, mice were placed into a novel environment (dark chamber) and received pairings of a cue and electric footshock (0.2 mA for 1 sec (Study 1) or 0.7 mA for 0.5 sec (Study 2)). […] Freezing time was defined as the time that the mice spent in immobile behavior, except for respiration. The data was expressed as the percentage of the test period. 24 hours after a training session, mice were tested for 5 min in the training chamber with no shock presentation and observed for freezing behavior.
(§3) Multivariate analysis of variance was employed to assess group differences across data. Repeated measures ANOVA were performed for behavioral data. Statistically significant effects in each ANOVA were followed with post hoc comparisons, using the Newman-Keuls test (Study 1) or the Tukey test (Study 2). A p value of less than 0.05 was considered significant.

[2] = system: Fmr1 knockout (KO) or Wild Type (WT) mice; assay: Social recognition memory (Trial 2, social memory ratio); conditions: for social memory, duration of sniffing: 2 months old, Study 2; for duration of sniffing, Trial 2: 150 mg/kg ip 7 days
Protocol: as §1, §2
Mice were placed in a test arena/cage of the same order of magnitude in size as the adult's home cage (40×23×12 cm cage, with a Perspex lid to facilitate viewing the mice) with fresh wood chippings on the floor. A background mouse odor was created by putting in some non-experimental mice into the apparatus prior to testing. Mice were transferred to the experimental room 10-15 min prior to testing. A test subject and a juvenile were placed simultaneously into the test cage. The total duration and number of bouts of social investigation, defined as sniffing and close following (<2 cm from the tail) of the stimulus juvenile by the tested mouse, was assessed for 3 min. 30 min later, the test was repeated using the same stimulus juvenile. Data parameters collected were the total duration and total number of bouts of sniffing for the acquisition and recognition. A social memory ratio was derived, defined as trial 2/trial 1+2. Therefore, no memory (e.g. 20/(20+20)=0.5 and memory (e.g. 10/(20+10)=<0.5.
as §3
Social memory ratio was defined as the duration of sniffing bouts: trial 2/trial 1+2. Therefore, an example of no memory was (e.g. 20/(20+20)=0.5, while an example of memory was (e.g. 10/(20+10)=<0.5.

[3] = system: ERK; assay: Brain phosphorylation of ERK (western blot)
Protocol: as §2
The Ras-Mek-ERK and PI3K-Akt-mToR signaling pathways are involved in mediating activity dependent alterations in gene transcription underlying changes in synaptic plasticity (Klann and Dever, 2004). Phosphorylated ERK and Akt protein expression was measured by western blot analysis as previously described by Lopez Verrilli (Lopez Verrilli et al., 2009). The antibodies employed were anti-phosphospecific antibodies against Akt (1/1000) and kinase (ERK) 1/2 (1/2000) (Cell Signaling Technology, Danvers, Mass., USA). The antibody against phospho-ERK detects phosphorylation at phospho-ERK 1/2 (Thr202/Tyr204) whereas the antibody against phospho-Akt detects phosphorylation at phospho-Akt (Thr308). Total Akt and ERK 1/2 protein content and phosphorylated ERK and Akt were evaluated by blotting membranes with antiphospho-Akt (1/1000) and antiphospho-ERK antibodies (1/2000) (Cell Signaling Technology, Danvers, Mass., USA). Akt or ERK phosphorylation was normalized to protein content in the same sample and expressed as % of change with respect to basal conditions, considering basal levels as 100%. Protein loading was evaluated by stripping and re-blotting membranes with j-actin antibody (1/1000) (Sigma-Aldrich, St. Louis, Mo., USA). Phosphorylated ERK and Akt protein expression in blood lymphocytes was measured by flow cytometry. For lymphocyte biomarker determinations, a FACStar plus (Becton Dickinson) was used with the excitation laser tuned at 488 nm and green fluorescence from FITC (GST) was collected through a 515-545 nm bandpass filter. The mean FITC fluorescence Intensity was calculated in relation to the fluorescence of reference cells. The mean cellular fluorescence intensity (MFI) is directly proportional to the mean number of Ab molecules bound per cell.

[4] = Fmr1 KO mice, 6 months old, 150 mg/kg ip once daily 7 days
[5] = Fmr1 KO mice, 2 months old, 150 mg/kg ip 7 days, Study 2

SMILES: Cc1ncc(CO)c(CO)c1O.O=C1CC[C@@H](C(=O)O)N1 [metadoxine, pyridoxol L,2-pyrrolidon-5 carboxylate]
- contextual fear conditioning, freezing (learning deficit) ([1]; Fmr1 KO mice aged six months, 150 mg/kg ip once daily 7 days, Study 2): complete reversal
- contextual fear conditioning, freezing (learning deficit) ([1]; Fmr1 KO mice, 2 months old, 100 mg/kg ip once daily 7 days, Study 1): partial reversal
- contextual fear conditioning, freezing (learning deficit) ([1]; Fmr1 KO mice, 2 months old, 150 mg/kg ip once daily 7 days, Study 1, 150 mg/kg): reversed the learning deficit effect in Fmr1 knockout mice, this reversal being partial; also recorded: fully rescued
- contextual fear conditioning, freezing behavior ([1]; Fmr1 KO mice, 2 months old, 150 mg/kg ip once daily 7 days, Study 2): the reversal was complete
- contextual fear conditioning, freezing behavior ([1]; Fmr1 KO mice, 2 months old, 150 mg/kg oral once daily 7 days, Study 2): the reversal was complete
- contextual fear conditioning, freezing (learning deficit) ([1]; Fmr1 KO mice, 2 months old, 200 mg/kg ip once daily 7 days, Study 1, 200 mg/kg): completely reversed; also recorded: fully rescued
- contextual fear conditioning, freezing behavior ([1]; Fmr1 KO mice, 2 months old, 300 mg/kg oral once daily 7 days, Study 2): the reversal was complete
- contextual fear conditioning, freezing behavior ([1]; WT mice, 2 months old, 150 mg/kg ip or 150 and 300 mg/kg oral, 7 days, Study 2): No effects were seen
- contextual fear conditioning, freezing ([1]; WT mice, 2 months old, 100, 150 or 200 mg/kg ip once daily 7 days, Study 1): no effect on WT mice
- social memory, duration of sniffing ([2]; Fmr1 KO mice, 150 mg/kg ip once daily 7 days): reversal was complete
- social memory, duration of sniffing ([2]; Fmr1 KO mice, 150 mg/kg oral once daily 7 days): reversal was complete
- social memory, duration of sniffing ([2]; Fmr1 KO mice, 300 mg/kg oral once daily 7 days): reversal was complete
- social memory, duration of sniffing (Trial 2) [2, 4]: reversal by metadoxine was complete
- social memory, number of sniffing bouts (Trial 2) [2, 4]: reversal for number of sniffing bouts was partial
- duration of sniffing, Trial 2 ([2]; KO-M: Fmr1 KO mice, 6 months old): 12.7
- social memory, duration of sniffing ([2]; WT mice, any dose (150 mg/kg ip, 150 and 300 mg/kg oral)): without effect on WT mice
- social memory, sniffing bouts and duration (Trial 2) ([2]; WT mice, 6 months old, 150 mg/kg ip once daily 7 days): without effect on WT mice
- duration of sniffing, Trial 2 ([2]; WT-M: WT mice, 6 months old): 12.5
- pERK levels in hippocampus [3, 5]: complete reversal of activation of ERK
- pERK levels in pre-frontal cortex [3, 5]: effect in pre-frontal cortex was partial
- pERK levels in striatum [3, 5]: complete reversal of activation of ERK
- whole brain levels of pERK [3, 4]: increase was reversed by metadoxine treatment
- pERK levels in hippocampus, pre-frontal cortex and striatum ([3]; WT mice, 2 months old, 150 mg/kg ip 7 days, Study 2): without effect on WT mice
- whole brain phosphorylation of ERK ([3]; WT mice, 2 months old, 150 mg/kg ip once daily 7 days, Study 1): no effect on phosphorylation of ERK in WT mice
- whole brain total ERK levels ([3]; any mice (KO or WT), 2 months old, 150 mg/kg ip once daily 7 days, Study 1): no effect
